Experimental data reported in patent US20130137706A1, “Antimicrobial Molecules For Treating Multi-Drug Resistant and Extensively Drug Resistant Strains Of Mycobacterium” (POLYMEDIX, INC., priority 2008, published 2013).
In brackets after ≈: the same amount, converted by molar mass. Read-outs that look alike come from different tables or passages of the source.

What was measured:
[1] = tested on: M. tuberculosis (H37Rv strain); experiment: Microplate Alamar Blue Assay (MABA) susceptibility assay in BACTEC 12B medium; assay type: cell-based; conditions: Mycobacterium tuberculosis
monkey VERO cells = experiment: VERO cell cytotoxicity assay (luminescent ATP cell viability, 72 hour exposure); assay type: cell-based; conditions: Primates
[2] = H37Rv strain, MABA, 90% reduction in fluorescence relative to controls, read-out: IC90 M. tuberculosis (H37Rv strain)
[3] = Table 1, H37Rv strain, read-out: IC90 value (v. M. tuberculosis)
[4] = Vero, summary of Table 1, read-out: EC50 value (v. Monkey VERO Cells)
[5] = VERO cells, 72 hour exposure, ATP luminescence, read-out: EC50 VERO cells

Structure (SMILES)	IC90 [1, 2] [µg/mL]	IC90 [1, 3] [µg/mL]	EC50 (monkey VERO cells; [4]) [µg/mL]	EC50 (monkey VERO cells; [5]) [µg/mL]
CC(C)(C)c1cc(N)c(SCCNC(=N)N)c(NC(=O)c2cc(OCCNC(=N)N)cc(C(=O)Nc3cc(C(C)(C)C)cc(N)c3SCCNC(=N)N)c2)c1 [Compound 1]	2.2 (≈ 2.77 µM)	< 5	> 300	> 300
CC(C)(C)c1cc(N)c(SCCNC(=N)N)c(NC(=O)c2cc(C(=O)Nc3cc(C(C)(C)C)cc(N)c3SCCNC(=N)N)c(OCCNC(=N)N)cc2OCCNC(=N)N)c1 [Compound 2]	4.5 (≈ 5.03 µM)	< 5	> 300	> 300
N=C(N)NCCCCC(=O)Nc1cccc(NC(=O)c2cc(C(=O)Nc3cccc(NC(=O)CCCCNC(=N)N)c3SCCN)ncn2)c1SCCN [Compound 3]	3.6 (≈ 4.61 µM)	< 5	> 100	> 100
CC(C)(C)c1cc(NC(=O)CCCCNC(=N)N)c(SCCN)c(NC(=O)Nc2cc(C(C)(C)C)cc(NC(=O)CCCCNC(=N)N)c2SCCN)c1 [Compound 4]	18.4 (≈ 23.4 µM)	< 20	> 300	> 300
